For series [1], the system named is INS1 cells. The series is described as follows: Mitotracker Green pulse-chase (mitochondrial clearance). Type of series: cell-based. The following applies: 25 uM, 18 h after MTG pulse. How it is done: FIGS. 8A-E show the effect of two hit compounds on mitophagy confirmed by other methods. […] Cells were imaged using a 63× Plan Neofluar objective and the Airyscan module of a Zeiss LSM880 confocal microscope. […] Data are normalized by DMSO. […] After 18 h, cells were imaged. As control, cells were loaded with MTG 30 min prior imaging—time “0” (100% MTG staining). Cells were imaged using a 40× lens of a Perkin Elmer Operetta high-content imaging system microscope (FIG. 8D). […] Each experiment was repeated three times. For mCherry-GFP-FIS1101-152 assay, 59-85 cells of each group were analyzed in each experiment and for MTG pulse-chase assay, 45 fields were analyzed in each experiment. Values of *p<0.05 vs. DMSO, #p<0.05 vs. “time 0”.
Mitotracker Green Fluorescence, Anion Radical Superoxide and Mitochondrial Membrane Potential. […] Results are expressed as the percentage of MTG fluorescence relative to MTG fluorescence of the “time 0” control. […] Integrated fluorescence of each field was analyzed in Image J after background subtraction and threshold (IsoData) application. Twenty-four fields of each condition were analyzed in each experiment.
A second fluorescence technique, Mitotracker Green (MTG) “pulse-and-chase” (FIG. 8 C-E), was utilized to confirm faster mitochondrial clearance upon treatment with SPB08007 and MWP00839. […]

A further series has as its system Mitochondrial complex I. The series can be described thus: Complex I activity assay. Type of series: biochemical. The conditions noted are these: mitochondria from INS1 cells treated with 25 uM. Here is the method:
Complex I Activity assay. Mitochondrial complex I enzyme activity was measured using Abcam's complex I enzyme activity microplate assay Kit (ab109721) by following the oxidation of reduced nicotinamide adenine dinucleotide (NADH) to oxidized NAD+ and the simultaneous reduction of a dye which leads to increased absorbance at OD=450 nm.

The test system of series [2] is INS1 cells. The series is described as follows: Anion radical superoxide (Mitosox). In kind it is cell-based. The following applies: 25 uM. Here is the method:
(§1) INS1 cells were treated for 24 h with SPB08007 (25 uM) or DMSO (0.1%). Mitochondrial membrane potential was analyzed cell by cell through TMRE staining corrected by Mitotracker Green (MTG). Cells were imaged using a 100× Plan Neofluar objective and the Airyscan module of a Zeiss LSM880 confocal microscope. […] Each experiment was repeated 2 times, 59-85 cells of each group were analyzed in each experiment for TMRE/MTG, and 48 fields were analyzed in each experiment for Mitosox analysis. *p<0.05 vs. DMSO; ***p<0.05 vs. DMSO and SPB08007.
Mitotracker Green Fluorescence, Anion Radical Superoxide and Mitochondrial Membrane Potential. INS1 cells were seeded into wells of a 96-wells glass bottom cell culture plate (CELLSTAR) at a density of 2*10^4 cells/well. To assess mitochondrial clearance, a pulse-chase experiment was performed. Briefly, cells were stained with MTG (Molecular Probes) 500 nM for 30 min, washed, and treated with (25 uM) or DMSO 0.1%. After 18 h, cells were imaged using a 40× lens of a Perkin Elmer Operetta high-content imaging system microscope. Results are expressed as the percentage of MTG fluorescence relative to MTG fluorescence of the “time 0” control. […] Integrated fluorescence of each field was analyzed in Image J after background subtraction and threshold (IsoData) application. Twenty-four fields of each condition were analyzed in each experiment.

In series [3] the test system is INS1 cells. The series can be described thus: Mitochondrial membrane potential (TMRE/MTG). Type of series: cell-based. The conditions noted are these: 25 uM, 24 h. Here is the method:
as §1
To assess mitochondrial membrane potential, INS1 cells were plated in each compartment of a quadrant imaging dish (Greiner Bio-One International) at a density of 1.2*10^5 cells/well. After 48 h, cells were incubated RPMI-1640 containing 25 μM of compound A or vehicle (0.1% DMSO). After 18h, the cells were stained in RPMI-1640 media containing 200 nM MitoTracker Green (MTG) and 15 nM of Tetramethylrhodamine, ethyl ester (TMRE); cells were then washed three times and finally kept in RPMI-1640 containing TMRE but lacking MTG. Live-Imaging was performed using a 63× Plan Neofluar objective and the Airyscan module of a Zeiss LSM880 confocal microscope. The mitochondrial membrane potential was analyzed by TMRE fluorescence corrected by MTG, using the Fiji/ImageJ software.

The test system of series [4] is INS1 cells. The series is described as follows: Mitochondrial morphology (aspect ratio, circularity). Type of series: cell-based. The conditions noted are these: 25 uM, 24 h. Here is the method: INS1 cells were treated with SPB08007 (25 uM) or DMSO (0.1%) for 24 h. Mitochondria were stained with Mitotracker Green and TMRE (images represented in FIG. 10). MTG fluorescence was used to calculate Aspect Ratio (AR) (FIG. 16A) and circularity (FIG. 16B) of mitochondrial structures.

Entries after “also recorded” stand apart in the source; their conditions may differ.

Regarding `CC(=O)N/C(=C\c1sc2ccccc2c1C)C(=O)O` [SPB08007], the “MTG intensity after pulse-chase” value with INS1 cells [1] is “lower MTG intensity compared to DMSO”. For the same molecule, the “mitochondrial Complex I activity” value with Mitochondrial complex I is reported as “two-and-a-half-fold increase”. Moreover, the “anion radical superoxide formation (Mitosox)” value in the series with INS1 cells [2] is listed as “unaffected”. In addition, in the series on INS1 cells [3], the “mitochondrial membrane potential ψm (TMRE/MTG)” value is given as “not reduced; also recorded: slightly, but significantly, raised”. Moreover, in the series with INS1 cells [4], the mitochondrial morphology result is on record as “does not alter”.

The values are drawn from patent US20230002344A1, “NOVEL BENZOTHIOPHENE DERIVATIVES AND USE THEREOF FOR STIMULATING MITOCHONDRIAL TURNOVER” (NIBN, The National Institute For Biotechnology In The Negev …, priority 2019, published 2023).
